Tested on: Methicillin-Resistant Staphylococcus Aureus (MRSA)
Assay: MRSA bacteriocidal effects in combination with oxacillin
Assay type: cell-based
Design: concentration or dose not given beside the values

Cc1onc(-c2ccccc2)c1C(=O)N[C@@H]1C(=O)N2[C@@H]1SC(C)(C)[C@@H]2C(=O)O [Drug, oxacillin]
Percentage of plates with no growth (0 min): 16.67% | Percentage of plates with no growth (30 min): 0.00% | Percentage of plates with no growth (120 min): 0.00% | Percentage of plates with no growth (240 min): 0.00% | Percentage of plates with no growth (480 min): 0.00% | Percentage of plates with no growth (1080 min): 0.00% | Percentage of plates with no growth (1440 min): 0.00%
